Results published in patent publication US9469615B2, “Quinoxalines and AZA-quinoxalines as CRTH2 receptor modulators” (Merck Sharp & Dohme Corp., priority 2010, dated 2016).

These compounds were tested against T1, hCRTH2 (Homo sapiens, UniProt Q9Y5Y4) (assay: Radioligand binding assay ([3H]PGD2 competition, HEK-hCRTH2 membranes)). Conditions: [3H]PGD2 binding, rated A-E (Table A).
T1 construct: expressed in transfected cells; host or cells: HEK (human embryonic kidney) cells expressing hCRTH2; membrane preparation
T1 sequence (Q9Y5Y4 1-395): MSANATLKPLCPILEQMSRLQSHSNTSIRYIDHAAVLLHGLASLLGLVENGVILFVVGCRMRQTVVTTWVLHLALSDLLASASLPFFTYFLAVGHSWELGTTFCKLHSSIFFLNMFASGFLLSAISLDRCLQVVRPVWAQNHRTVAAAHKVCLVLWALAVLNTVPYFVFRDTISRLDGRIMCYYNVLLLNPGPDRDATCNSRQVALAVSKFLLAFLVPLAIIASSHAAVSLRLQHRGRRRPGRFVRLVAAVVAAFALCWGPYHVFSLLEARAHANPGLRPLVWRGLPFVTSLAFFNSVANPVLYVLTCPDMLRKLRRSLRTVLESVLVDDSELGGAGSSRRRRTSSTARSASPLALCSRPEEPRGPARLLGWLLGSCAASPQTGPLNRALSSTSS
In short: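 Displacement of 3.0 nM [3H]PGD2 from human CRTH2 expressed in HEK membranes was measured at room temperature over 60 min. Unlabelled PGD2 at 10 μM gave non-specific binding.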

Compound	Ki [nM]
O=C(O)CCCCc1nc2cc(C(=O)N[C@@H]3CCCc4cc(F)ccc43)ccc2nc1-c1ccccc1 [compound 254, 7-[[(6-fluoro-1,2,3,4-tetrahydro-1(R)-naphthalenyl)amino]carbonyl]-3-phenyl-2-quinoxalinepentanoic acid]	0.1 to 2
O=C(O)CCCCc1nc2cc(C(=O)N[C@@H]3CCCc4cc(Cl)ccc43)ccc2nc1-c1ccccc1 [compound 255, 7-[[(6-chloro-1,2,3,4-tetrahydro-1(R)-naphthalenyl)amino)carbonyl]-3-phenyl-2-quinoxalinepentanoic acid]	0.1 to 2

Same assay, conditions: [3H]PGD2 binding, values in text

Compound	Ki [nM]
O=C(O)CCCCc1nc2cc(C(=O)N[C@@H]3CCCc4cc(Cl)ccc43)ccc2nc1-c1ccccc1 [compound 255, 7-[[(6-chloro-1,2,3,4-tetrahydro-1(R)-naphthalenyl)amino)carbonyl]-3-phenyl-2-quinoxalinepentanoic acid]	1.5
O=C(N[C@@H]1CCCc2cc(F)ccc21)c1ccc2nc(-c3ccc(F)cc3)c(CCC3CC3C(=O)O)nc2c1 (stereo partly drawn) [compound 264, 2-(2-(7-(((R)-6-fluoro-1,2,3,4-tetrahydronaphthalen-l-yl)carbamoyl)-3-(4-fluorophenyl)quinoxalin-2-yl)ethyl)cyclopropanecarboxylic acid]	15.4

Same assay, conditions: [3H]PGD2 competition, Table B

Compound	Ki [nM]
O=C(O)CCCCc1nc2cc(C(=O)N[C@@H]3CCCc4ccccc43)ccc2nc1-c1ccccc1 [compound 256, (R)-5-(3-phenyl-7-((1,2,3,4-tetrahydronaphthalen-1-yl)carbamoyl)quinoxalin-2-yl)pentanoic acid]	0.1 to 2
C[C@H](NC(=O)c1ccc2nc(-c3ccc(Cl)cc3)c(CCCCC(=O)O)nc2c1)c1ccc(C#N)cc1 [compound 257]	2.1 to 20
C[C@@H](CCc1nc2cc(C(=O)N[C@@H]3CCCc4ccccc43)ccc2nc1-c1ccc(F)cc1)CC(=O)O [compound 258, (S)-5-(3-(4-fluorophenyl)-7-(((R)-1,2,3,4-tetrahydronaphthalen-1-yl)carbamoyl)quinoxalin-2-yl)-3-methylpentanoic acid]	2.1 to 20
O=C(O)Cc1cccc(-c2nc3cc(C(=O)N4CCN(c5ccccc5)CC4)ccc3nc2-c2ccc(Cl)cc2)c1 [compound 259, 2-(3-(3-(4-chlorophenyl)-7-(4-phenylpiperazine-1-carbonyl)quinoxalin-2-yl)phenyl)acetic acid]	201 to 700
O=C(N[C@@H]1CCCc2cc(F)ccc21)c1ccc2nc(-c3ccc(F)cc3)c(CC[C@H]3C[C@@H]3C(=O)O)nc2c1 [compound 261, (1S,2S)-2-(2-(7-(((R)-6-fluoro-1,2,3,4-tetrahydronaphthalen-1-yl)carbamoyl)-3-(4-fluorophenyl)quinoxalin-2-yl)ethyl)cyclopropane-carboxylic acid]	2.1 to 20
O=C(N[C@@H]1CCCc2ccccc21)c1ccc2nc(-c3ccc(F)cc3)c(CC[C@H]3C[C@@H]3C(=O)O)nc2c1 [compound 262, (1S,2S)-2-(2-(3-(4-fluorophenyl)-7-(((R)-1,2,3,4-tetrahydronaphthalen-1-yl)carbamoyl)quinoxalin-2-yl)ethyl)cyclopropanecarboxylic acid]	2.1 to 20
O=C(N[C@@H]1CCCc2cc(F)ccc21)c1ccc2nc(-c3ccc(F)cc3)c(CC[C@@H]3C[C@H]3C(=O)O)nc2c1 [compound 263, (1R,2R)-2-(2-(7-(((R)-6-fluoro-1,2,3,4-tetrahydronaphthalen-l-yl)carbamoyl)-3-(4-fluorophenyl)quinoxalin-2-yl)ethyl)cyclopropanecarboxylic acid]	2.1 to 20
O=C(N[C@@H]1CCCc2cc(F)ccc21)c1ccc2nc(-c3ccc(F)cc3)c(CCC3CC3C(=O)O)nc2c1 (stereo partly drawn) [compound 264, 2-(2-(7-(((R)-6-fluoro-1,2,3,4-tetrahydronaphthalen-l-yl)carbamoyl)-3-(4-fluorophenyl)quinoxalin-2-yl)ethyl)cyclopropanecarboxylic acid]	2.1 to 20
C[C@@H]1CN(c2ccc(F)cc2)CCN1C(=O)c1ccc2nc(-c3ccccc3)c(CCCCC(=O)O)nc2c1 [compound 265, (R)-5-(7-(4-(4-fluorophenyl)-2-methylpiperazine-1-carbonyl)-3-phenylquinoxalin-2-yl)pentanoic acid]	2.1 to 20
O=C(O)CCCCc1nc2cc(C(=O)NC3CC(=O)Nc4ccccc43)ccc2nc1-c1ccccc1 (centres unmarked) [compound 266, 5-(7-((2-oxo-1,2,3,4-tetrahydroquinolin-4-yl)carbamoyl)-3-phenylquinoxalin-2-yl)pentanoic acid]	2.1 to 20
O=C(O)CCCCc1nc2cc(C(=O)N3CCC4(CC3)CNC(=O)c3ccccc34)ccc2nc1-c1ccc(Cl)cc1 [compound 267, 5-(3-(4-chlorophenyl)-7-(1-oxo-2,3-dihydro-1H-spiro[isoquinoline-4,4′-piperidin]-1′-ylcarbonyl)quinoxalin-2-yl)pentanoic acid]	2.1 to 20
O=C(O)CCCCc1nc2cc(C(=O)NC3CCC(=O)Nc4ccccc43)ccc2nc1-c1ccc(Cl)cc1 (centres unmarked) [compound 268, 5-(3-(4-chlorophenyl)-7-((2-oxo-2,3,4,5-tetrahydro-1H-benzo[b]azepin-5-yl)carbamoyl)quinoxalin-2-yl)pentanoic acid]	2.1 to 20
O=C(O)Cc1cccc(CCCc2nc3cc(C(=O)N[C@@H]4CCCc5ccccc54)ccc3nc2-c2ccc(F)cc2)c1 [compound 269, (R)-2-(3-(3-(3-(4-fluorophenyl)-7-((1,2,3,4-tetrahydronaphthalen-1-yl)carbamoyl)quinoxalin-2-yl)propyl)phenyl)acetic acid]	201 to 700
O=C(O)Cc1cccc(CCCc2nc3cc(C(=O)N[C@H]4CCCc5ccccc54)ccc3nc2-c2ccc(F)cc2)c1 [compound 270, (S)-2-(3-(3-(3-(4-fluorophenyl)-7-((1,2,3,4-tetrahydronaphthalen-1-yl)carbamoyl)quinoxalin-2-yl)propyl)phenyl)acetic acid]	201 to 700
C[C@@H](NC(=O)c1ccc2nc(-c3ccc(F)cc3)c(CCCc3cccc(CC(=O)O)c3)nc2c1)c1ccc(F)cc1 [compound 271]	201 to 700
O=C(O)Cc1cccc(CCCc2nc3cc(C(=O)N4CCN(c5ccccc5)CC4)ccc3nc2-c2ccc(F)cc2)c1 [compound 272, 2-(3-(3-(3-(4-fluorophenyl)-7-(4-phenylpiperazine-1-carbonyl)quinoxalin-2-yl)propyl)phenyl)acetic acid]	20.1 to 200
O=C(O)Cc1cccc(CCCc2nc3cc(C(=O)N4CC(c5cccc(F)c5)C4)ccc3nc2-c2ccc(F)cc2)c1 [compound 273, 2-(3-(3-(3-(4-fluorophenyl)-7-(3-(3-fluorophenyl)azetidine-1-carbonyl)quinoxalin-2-yl)propyl)phenyl)acetic acid]	20.1 to 200
O=C(O)Cc1cccc(CCCc2nc3cc(C(=O)N4CC[C@@H](c5ccccc5)C4)ccc3nc2-c2ccc(F)cc2)c1 [compound 274, (S)-2-(3-(3-(3-(4-fluorophenyl)-7-(3-phenylpyrrolidine-1-carbonyl)quinoxalin-2-yl)propyl)phenyl)acetic acid]	2.1 to 20
CN(Cc1ccc(F)cc1)C(=O)c1ccc2nc(-c3ccc(F)cc3)c(CCCc3cccc(CC(=O)O)c3)nc2c1 [compound 275, 2-(3-(3-(7-((4-fluorobenzyl)(methyl)carbamoyl)-3-(4-fluorophenyl)quinoxalin-2-yl)propyl)phenyl)acetic acid]	20.1 to 200
C[C@H](CCc1nc2cc(C(=O)N[C@@H]3CCCc4ccccc43)ccc2nc1-c1ccccc1)CC(=O)O [compound 276, (R)-3-methyl-5-(3-phenyl-7-(((R)-1,2,3,4-tetrahydronaphthalen-1-yl)carbamoyl)quinoxalin-2-yl)pentanoic acid]	2.1 to 20
C[C@H](CCc1nc2cc(C(=O)N[C@H]3CCCc4ccccc43)ccc2nc1-c1ccccc1)CC(=O)O [compound 277, (R)-3-methyl-5-(3-phenyl-7-(((S)-1,2,3,4-tetrahydronaphthalen-1-yl)carbamoyl)quinoxalin-2-yl)pentanoic acid]	2.1 to 20
C[C@H](CCc1nc2cc(C(=O)N[C@H](C)c3ccc(F)cc3)ccc2nc1-c1ccccc1)CC(=O)O [compound 278, (R)-5-(7-(((R)-1-(4-fluorophenyl)ethyl)carbamoyl)-3-phenylquinoxalin-2-yl)-3-methylpentanoic acid]	20.1 to 200
C[C@H](CCc1nc2cc(C(=O)N[C@@H](C)c3ccc(F)cc3)ccc2nc1-c1ccccc1)CC(=O)O [compound 279, (R)-5-(7-(((S)-1-(4-fluorophenyl)ethyl)carbamoyl)-3-phenylquinoxalin-2-yl)-3-methylpentanoic acid]	20.1 to 200
C[C@H](CCc1nc2cc(C(=O)N3CCN(c4ccccc4)CC3)ccc2nc1-c1ccccc1)CC(=O)O [compound 280, (R)-3-methyl-5-(3-phenyl-7-(4-phenylpiperazine-1-carbonyl)quinoxalin-2-yl)pentanoic acid]	701 to 2300
C[C@H](CCc1nc2cc(C(=O)N3CC(c4cccc(F)c4)C3)ccc2nc1-c1ccccc1)CC(=O)O [compound 281, (R)-5-(7-(3-(3-fluorophenyl)azetidine-1-carbonyl)-3-phenylquinoxalin-2-yl)-3-methylpentanoic acid]	20.1 to 200
C[C@H](CCc1nc2cc(C(=O)N3CC[C@@H](c4ccccc4)C3)ccc2nc1-c1ccccc1)CC(=O)O [compound 282, (R)-3-methyl-5-(3-phenyl-7-((S)-3-phenylpyrrolidine-1-carbonyl)quinoxalin-2-yl)pentannic acid]	201 to 700
C[C@H](CCc1nc2cc(C(=O)N(C)Cc3ccc(F)cc3)ccc2nc1-c1ccccc1)CC(=O)O [compound 283, (R)-5-(7-((4-fluorobenzyl)(methyl)carbamoyl)-3-phenylquinoxalin-2-yl)-3-methylpentanoic acid]	201 to 700
O=C(O)CCCCc1nc2cc(C(=O)NC3CC(=O)Nc4ccc(F)cc43)ccc2nc1-c1ccccc1 (centres unmarked) [compound 284, 5-(7-((6-fluoro-2-oxo-1,2,3,4-tetrahydroquinolin-4-yl)carbamoyl)-3-phenylquinoxalin-2-yl)pentanoic acid]	2.1 to 20
